Data reported in US10722637B2, “Cartridge and method for increasing myocardial function” (SeaStar Medical, Inc., priority 2012, dated 2020).

Legend:
[1] = system: leukocytes in porcine blood; assay: Microscopic flow chamber: leukocyte interaction with polysulfone membrane; assay type: cell-based
Source text: A custom microscopic flow chamber system was set up to enable microscopic analysis of leukocyte interaction with the SCD membrane. The flow chamber consisted of a polycarbonate housing with an inlet and outlet for perfusion. A polysulfone membrane was affixed to the polycarbonate block with a gasket which directed shear flow. The thickness of the gasket (100 μm) along with the length (2 cm) and the width of the channel (1.5 mm) determined the volume of the flow chamber. Microscopic imaging was accomplished through an optical window made up of a cover glass affixed to the bottom of the polycarbonate block. Either isolated blood or purified leukocytes were used for this study.
Isolated blood was prone to activation from excessive handling. […] Blood passed through the flow chamber at a rate of 20 μL/min with calculated shear forces between 1-10 dynes/cm^2. […]
Microscopic analysis of cell capture events was accomplished using either a Zeiss Axiovert 200M or Axio-Observer epifluorescence microscope equipped with a microscope stage-top incubator to control environmental temperature and CO2 content. Fluorescence images were acquired with either a Zeiss MRm3 or an Icc1 camera at a frequency of 1 frame/second for 5 minutes, for analysis of leukocyte/membrane interaction, and at 1 frame/minute for 1 hour sequences, for analysis of long term leukocyte attachment. […]

[2] = system: leukocytes in human whole blood; assay: In vitro whole blood assay of leukocyte activation; assay type: cell-based; conditions: for CD11b: n = 3; for Lactoferrin: n = 4; for Elastase: n = 5
Protocol: Heparinized human whole blood was added to tubes with or without lipopolysaccharide (LPS) (10 μg/mL) or formyl-Methionyl-Leucyl-Phenylalanine (fMLF, 50 nM). […] The release of IL-6, IL-8, or IL-10 was measured using commercially available ELISA kits from R&D Systems. The release of elastase was measured using a commercially available ELISA kit from Bender MedSystems. The release of lactoferrin was measured using a commercially available ELISA kit from EMD Chemicals. […] Samples were incubated for various times at 37° C. and 5% CO2. CD11b activation was measured using an FITC-conjugated mouse anti-human antibody (AbD Serotech) and evaluated on an Accuri C6 flow cytometer.

O=C(O)CC(O)(CC(=O)O)C(=O)O [Citrate]
leukocyte attachment to polysulfone membranes during shear flow ([1]; LPS activated, low ionized calcium flow chambers): statistically significant decrease | blood iCa level ([1]; after addition of citrate (from 1.32±0.05)): 0.32 ± 0.05 mmol/L | CD11b ([2]; Baseline): 7.32 ± 0.47 MFI × 10^3 | Lactoferrin ([2]; Baseline): 1.67 ± 0.29 mg/mL | Elastase ([2]; Baseline): 0.94 ± 0.14 mg/mL | CD11b ([2]; Stimulated (LPS, fMLF)): 28.72 ± 2.95 MFI × 10^3 | Lactoferrin ([2]; Stimulated (LPS, fMLF)): 3.43 ± 0.18 mg/mL | Elastase ([2]; Stimulated (LPS, fMLF)): 0.91 ± 0.28 mg/mL | iCa levels ([2]; citrate treated samples (1.25 mM nontreated)): < 0.25 mM
